Where two headings read alike, the source gives them in different places.
Legend:
Zymoseptoria tritici = experiment: Leaf Blotch of Wheat fungicidal activity (SEPTTR); assay type: in vivo; conditions: for pest or weed control at 100 ppm: wheat, high volume; for pest or weed control at 121.5 g/ha: Low Volume Cereal Activity at 121.5 g/Ha
Description: (§1) All fungicides were evaluated using the aforementioned method for their activity vs. all target diseases, unless stated otherwise. Wheat leaf blotch and brown rust activity were also evaluated using track spray applications, in which case the fungicides were formulated as EC formulations, containing 0.1% Trycol 5941 in the spray solutions. Wheat plants (variety Yuma) were grown from seed in a greenhouse in 50% mineral soil/50% soil-less Metro mix until the first leaf was fully emerged, with 7-10 seedlings per pot. These plants were inoculated with an aqueous spore suspension of Zymoseptoria tritici either prior to or after fungicide treatments. After inoculation the plants were kept in 100% relative humidity (one day in a dark dew chamber followed by two to three days in a lighted dew chamber at 20° C.) to permit spores to germinate and infect the leaf. The plants were then transferred to a greenhouse set at 20° C. for disease to develop. When disease symptoms were fully expressed on the 1st leaves of untreated plants, infection levels were assessed on a scale of 0 to 100 percent disease severity. Percent disease control was calculated using the ratio of disease severity on treated plants relative to untreated plants.

Puccinia triticina = experiment: Wheat Brown Rust fungicidal activity (PUCCRT); assay type: in vivo; conditions: for pest or weed control at 100 ppm: wheat, high volume; for pest or weed control at 121.5 g/ha: Low Volume Cereal Activity at 121.5 g/Ha
Description: as §1, with “plants. Wheat plants (variety Yuma) were grown from seed in a greenhouse in 50% mineral soil/50% soil-less Metro mix until the first leaf was fully emerged, with 7-10 seedlings per pot. These plants were inoculated with an aqueous spore suspension of Puccinia triticina either prior to or after fungicide treatments. […] The plants were then transferred to a greenhouse set at 24° C. for disease to develop. Fungicide formulation, application and disease assessment followed the procedures as described in the Example A.” for “plants.”

[1] = 24 h, 1 Day Protectant, read-out: SEPTTR 1DP % Control rating
[2] = 72 h, 3 Day Curative, read-out: SEPTTR 3DC % Control rating
[3] = 24 h, 1 Day Protectant, read-out: PUCCRT 1DP % Control rating
[4] = 72 h, 3 Day Curative, read-out: PUCCRT 3DC % Control rating
[5] = 24 h, 1 Day Protectant, read-out: SEPTTR 1DP (Wheat Leaf Blotch, 1 Day Protectant)
[6] = 72 h, 3 Day Curative, read-out: SEPTTR 3DC (Wheat Leaf Blotch, 3 Day Curative)
[7] = 24 h, 1 Day Protectant, read-out: PUCCRT 1DP (Wheat Brown Rust, 1 Day Protectant)
[8] = 72 h, 3 Day Curative, read-out: PUCCRT 3DC (Wheat Brown Rust, 3 Day Curative)

Structure (SMILES) | pest or weed control at 100 ppm (Zymoseptoria tritici; [1]) [%] | pest or weed control at 100 ppm (Zymoseptoria tritici; [2]) [%] | pest or weed control at 100 ppm (Puccinia triticina; [3]) [%] | pest or weed control at 100 ppm (Puccinia triticina; [4]) [%] | pest or weed control at 121.5 g/ha (Zymoseptoria tritici; [5]) [%] | pest or weed control at 121.5 g/ha (Zymoseptoria tritici; [6]) [%] | pest or weed control at 121.5 g/ha (Puccinia triticina; [7]) [%] | pest or weed control at 121.5 g/ha (Puccinia triticina; [8]) [%]
COc1ccnc(C(=O)N[C@@H](C)C(=O)O[C@@H](C)C(Oc2ccc(F)cc2)c2ccc(F)cc2)c1O (stereo partly shown) [Example 147] | > 80 | > 80 | > 80 | < 80 |  |  |  | 
COc1ccnc(C(=O)N[C@@H](C)C(=O)O[C@@H](C)[C@H](Oc2ccccc2)c2ccc(F)cc2)c1O [Example 148] | < 80 | > 80 | > 80 | < 80 |  |  |  | 
COc1ccnc(C(=O)N[C@@H](C)C(=O)O[C@@H](C)[C@H](Oc2ccc(C)cc2Cl)c2ccccc2)c1O [Example 149] | > 80 | > 80 | > 80 | > 80 |  |  |  | 
COc1ccnc(C(=O)N[C@@H](C)C(=O)O[C@@H](C)[C@H](Oc2ccc(C)cc2Cl)c2ccc(F)cc2)c1O [Example 150] | > 80 | < 80 | > 80 | > 80 |  |  |  | 
COc1ccnc(C(=O)N[C@@H](C)C(=O)O[C@@H](C)[C@H](Oc2ccc(C)cc2)c2ccccc2)c1O [Example 151] | > 80 | < 80 | > 80 | > 80 |  |  |  | 
COc1ccnc(C(=O)N[C@@H](C)C(=O)O[C@@H](C)[C@H](Oc2ccc(C)cc2)c2ccc(F)cc2)c1O [Example 152] | > 80 | > 80 | > 80 | > 80 |  |  |  | 
COc1ccnc(C(=O)N[C@@H](C)C(=O)O[C@@H](C)[C@H](Oc2ccccc2)c2ccc(C)cc2)c1O [Example 154] | > 80 | > 80 | > 80 | > 80 |  |  |  | 
COc1ccnc(C(=O)N[C@@H](C)C(=O)O[C@@H](C)[C@H](Oc2ccccc2)c2ccc(F)cc2C)c1O [Example 162] | > 80 | > 80 | > 80 | > 80 |  |  |  | 
COc1ccnc(C(=O)N[C@@H](C)C(=O)O[C@@H](C)[C@H](Oc2ccccc2)c2ccc(F)cc2Cl)c1O [Example 163] | > 80 | > 80 | > 80 | > 80 |  |  |  | 
COc1ccnc(C(=O)N[C@@H](C)C(=O)O[C@@H](C)[C@H](Oc2ccccc2)c2ccc(C)cc2F)c1O [Example 164] | > 80 | > 80 | > 80 | > 80 |  |  |  | 
COc1ccnc(C(=O)N[C@@H](C)C(=O)O[C@@H](C)[C@H](Oc2ccccc2)c2cccc3ccccc23)c1O [Example 165] | > 80 | > 80 | > 80 | > 80 |  |  |  | 
COc1ccnc(C(=O)N[C@@H](C)C(=O)O[C@@H](C)[C@H](Oc2ccccc2)c2ccc3ccccc3c2)c1O [Example 166] | > 80 | > 80 | > 80 | > 80 |  |  |  | 
C=CCOc1cc(F)ccc1[C@@H](Oc1ccccc1)[C@H](C)OC(=O)[C@H](C)NC(=O)c1nccc(OC)c1O [Example 167] | > 80 | > 80 | > 80 | > 80 |  |  |  | 
CCOc1cc(F)ccc1[C@@H](Oc1ccccc1)[C@H](C)OC(=O)[C@H](C)NC(=O)c1nccc(OC)c1O [Example 168] | > 80 | > 80 | > 80 | > 80 |  |  |  | 
COc1cc(F)ccc1[C@@H](Oc1ccc(C)cc1Cl)[C@H](C)OC(=O)[C@H](C)NC(=O)c1nccc(OC)c1O [Example 169] | > 80 | > 80 | > 80 | < 80 |  |  |  | 
COc1cc(C)ccc1[C@@H](Oc1ccccc1)[C@H](C)OC(=O)[C@H](C)NC(=O)c1nccc(OC)c1O [Example 172] | > 80 | > 80 | > 80 | > 80 |  |  |  | 
COc1cc(F)ccc1[C@@H](Oc1ccc(C)cc1)[C@H](C)OC(=O)[C@H](C)NC(=O)c1nccc(OC)c1O [Example 173] | > 80 | > 80 | > 80 | > 80 |  |  |  | 
COc1ccnc(C(=O)N[C@@H](C)C(=O)O[C@@H](C)[C@H](Oc2ccccc2)c2ccc(F)cc2OCC2CC2)c1O [Example 175] | > 80 | < 80 | > 80 | > 80 |  |  |  | 
COc1ccnc(C(=O)N[C@@H](C)C(=O)O[C@@H](C)[C@H](Oc2ccccc2)c2ccc(F)cc2OCC(F)F)c1O [Example 176] | > 80 | > 80 | > 80 | > 80 |  |  |  | 
COc1cc(C)ccc1[C@@H](Oc1ccc(C)cc1)[C@H](C)OC(=O)[C@H](C)NC(=O)c1nccc(OC)c1O [Example 177] | > 80 | > 80 | < 80 | < 0 |  |  |  | 
COc1ccnc(C(=O)N[C@@H](C)C(=O)O[C@@H](C)[C@H](Oc2ccccc2)c2ccc(F)cc2Oc2ccccc2)c1O [Example 178] | > 80 | > 80 | > 80 | < 80 |  |  |  | 
COc1ccnc(C(=O)N[C@@H](Cc2ccccc2)C(=O)O[C@@H](C)[C@H](Oc2cccc(F)c2)c2ccccc2)c1OCOC(C)=O [Example 189] |  |  |  |  | < 80 | < 0 | > 80 | < 80
COc1ccnc(C(=O)N[C@@H](Cc2ccccc2)C(=O)O[C@@H](C)[C@H](Oc2cccc(F)c2)c2ccccc2)c1OC(C)=O [Example 190] |  |  |  |  | < 80 | < 0 | > 80 | < 80
COc1ccnc(C(=O)N[C@@H](C)C(=O)O[C@@H](C)[C@H](Oc2cc(F)ccc2F)c2ccccc2)c1OCOC(C)=O [Example 191] |  |  |  |  | < 0 | < 80 | > 80 | > 80
COc1ccnc(C(=O)N[C@@H](C)C(=O)O[C@@H](C)[C@H](Oc2cc(F)ccc2F)c2ccccc2)c1OC(C)=O [Example 192] |  |  |  |  | > 80 | < 80 | > 80 | > 80
CC[C@H](NC(=O)c1nccc(OC)c1OCOC(C)=O)C(=O)O[C@@H](C)[C@H](Oc1cc(F)ccc1F)c1ccccc1 [Example 193] |  |  |  |  | < 80 | < 0 | > 80 | > 80
CC[C@H](NC(=O)c1nccc(OC)c1OC(C)=O)C(=O)O[C@@H](C)[C@H](Oc1cc(F)ccc1F)c1ccccc1 [Example 194] |  |  |  |  | < 80 | < 0 | > 80 | < 80
COc1ccnc(C(=O)N[C@@H](C)C(=O)O[C@@H](C)[C@H](Oc2ccc(C(F)(F)F)cc2)c2ccccc2)c1OCOC(C)=O [Example 195] |  |  |  |  | > 80 | > 80 | > 80 | < 80
